Assay results: patent publication US4798897A, “Isoquinoline derivatives” (Asahi Kasei Kogyo Kabushiki Kaisha, priority 1987, dated 1989)

Experiments:
[1] = test system: femoral artery; assay: Blood flow increase of femoral artery in anesthetized dogs, i.v.; format: in vivo, dog (mongrel); settings: Canis lupus familiaris, iv, dog; for change in vivo at 0.3 mg/kg: i.v., read-out: Increase in femoral artery blood flow
Method: (§1) 2. Blood Flow Increase of Coronary, Vertebral and Femoral Arteries
(§2) A plethysmographic probe (manufactured and sold by NIHON KODEN CO., LTD., Japan) was mounted on the coronary, vertebral and femoral arteries, and blood flow was measured by means of an electromagnetic blood flowmeter (type:MF-27, manufactured and sold by NIHON KODEN CO., LTD., Japan). Under these conditions, the compounds of the present invention were intravenously administered through a polyethylene tube inserted to a femoral veinlet, and the change in blood flow was measured for 30 minutes by means of the electromagnetic blood flowmeter.
(§3) The effects (dilation of the arteries) of the compounds of the present invention on blood flow in coronary, vertebral and femoral arteries were examined according to the method as mentioned hereinbefore.

[2] = test system: mesenteric artery; assay: Relaxation of mesenteric artery (KCl-contracted); settings: Oryctolagus cuniculus; rabbit mesenteric artery contracted with 15 to 20 mM KCl; read-out: ED50 (concentration attaining 50% of complete relaxation)
[3] = test system: coronary artery; assay: Blood flow increase of coronary artery in anesthetized dogs, i.v.; format: in vivo, dog (mongrel); settings: Canis lupus familiaris, iv, dog; for change in vivo at 0.3 mg/kg: i.v., read-out: Increase in coronary artery blood flow
Method: as §1, §2, §3

[4] = Acute toxicity in rats; settings: in vivo, male rat
Method: (§4) Using ddY male mice and Wistar male rats, the acute toxicity of the compounds of the present invention was examined with respect to LD50 according to the method proposed by K. Takagi et al. (K. Takagi and H. Ozawa, "Expeprimental Techniques in Pharmacology," p200-206 (1960), NANZANDO CO., LTD., Japan).
(§5) Compounds of the present invention were tested with respect to acute toxicities according to the method as mentioned hereinbefore.

[5] = test system: vertebral artery; assay: Blood flow increase of vertebral artery in anesthetized dogs, i.v.; format: in vivo, dog (mongrel); settings: Canis lupus familiaris, iv, dog; for change in vivo at 0.3 mg/kg: i.v., read-out: Increase in vertebral artery blood flow
Method: as §1, §2, §3

[6] = Acute toxicity in mice; settings: mouse, in vivo, male mice
Method: as §4, §5

[7] = test system: bronchial tubes; assay: Inhibition of histamine contraction of bronchial tubes (relaxation of bronchial tubes); settings: Cavia porcellus; guinea pig bronchial tube, 10 μM histamine; Table 16; read-out: ED50 (50% decrease of histamine contraction of bronchial tubes)

| SMILES | change in vivo at 0.3 mg/kg [1] [%] | EC50 [2] [nM] | change in vivo at 0.3 mg/kg [3] [%] | LD50 ([4]; iv) [mg/kg] | LD50 ([4]; po) [mg/kg] | change in vivo at 0.3 mg/kg [5] [%] | LD50 ([6]; iv) [mg/kg] | LD50 ([6]; po) [mg/kg] | EC50 [7] [nM] | change in vivo at 1 mg/kg ([1]; 1.0 mg/kg) [%] | change in vivo at 1 mg/kg ([3]; 1.0 mg/kg) [%] | change in vivo at 1 mg/kg ([5]; 1.0 mg/kg) [%] |
| --- | --- | --- | --- | --- | --- | --- | --- | --- | --- | --- | --- | --- |
| CCCCCCN(CCN)S(=O)(=O)c1cccc2cnccc12 [Compound (4), N-(2-aminoethyl)-N-hexyl-5-isoquinolinesulfonamide] | 38 | 1000 | 188 | 131 | 968 | 170 | 95 | 1100 | 3000 | – | – | – |
| NC1CCCN(S(=O)(=O)c2cccc3cnccc23)C1 (stereo not drawn) [Compound (63), 1-(5-isoquinolinesulfonyl)-3-aminopiperidine] | 20 | 3000 | 91 | 194 | 1220 | 72 | 176 | 1120 | 3000 | 38 | 128 | 95 |
